“And” between values parts separate entries of the source, which are not always exact repeats. Equal values may be shown once.
Tests used:
[1] = Separation of binary mixture of rare-earth metals by precipitation from solution using L1 (Example 7); format: physicochemical; details: supernatant
Method: Two series of reaction mixtures were prepared, where one rare-earth metal was held constant (Gd or Lu) while the other was a variable rare-earth metal element (except Pm). […] The well plate was sealed with transparent adhesive tape to prevent evaporation and was anchored to a shaker. The well-plate was shaken for 5 days at room temperature at 900 rpm.

[2] = Separation of Ho/Er mixture by repeated precipitation using L1 (Example 11); format: physicochemical; details: for Precipitate concentration [mM] Ho: dissolved to 200 μL
Method: Stock solutions were pipetted into round-bottom 2 mL Eppendorf tubes as follows: • 1. 10 μL 100 mM aqueous solution of HoCl3 • 2. 10 μL 100 mM aqueous solution of ErCl3 • 3. 20 μL 100 mM aqueous solution of compound L1. • 4. 60 μL 2 M MOPS buffer pH=7. • 5. 140 μL water.
Nine identical reaction mixtures were prepared and split into three groups: A, B, C. Each tube was equipped with one PTFE-coated magnetic stir bar and sealed, and the mixture was stirred on a magnetic stirrer for 24 hours at room temperature. The tubes were then centrifuged and the supernatants were carefully pipetted out and transferred to a new set of tubes. Precipitates from group A were dissolved by addition of 200 μL 0.1 M HCl. The concentrations of Ho and Er in the supernatants and in the re-dissolved precipitates from group A were determined by ICP-OES. Precipitates from groups B and C were further processed as follows: the precipitates were dissolved by addition of 100 μL 0.1 M HCl, and the pH of the solutions were then raised from 1 to 7 by addition of an equimolar amount of 0.2 M NaOH. The total volume was adjusted to 200 μL by addition of water. The prepared mixtures were subjected to a second round of precipitation and were stirred on a magnetic stirrer for 24 hours at room temperature. The tubes were again centrifuged and the supernatants were carefully pipetted out and transferred to a new set of tubes. Samples from group B were treated identically to the samples from group A previously, and the Ho and Er content in the supernatants and precipitates were determined by ICP-OES. Precipitates from group C were subjected to a third cycle of precipitation followed by Ho and Er content determination analogously to the procedures described above. The resulting absolute concentrations of both metals in the supernatants and precipitates, as well as calculated values of the separation factor Er/Ho according to the formula (concentration of Er in supernatant/concentration of Er in precipitate)/(concentration of Ho in supernatant/concentration of Ho in precipitate), are summarized in Table 5.

[3] = group A, 1st precipitation, mean

O=C(O)CN1CCN(CC(=O)O)CCN(Cc2ccccc2)CCN(CC(=O)O)CC1 [L1, 2,2′,2″-(10-benzyl-1,4,7,10-tetraazacyclododecane-1,4,7-triyl)triacetic Acid]
[mM] Gd ([1]; M1=Ce, M2=Gd): 0.149 mM
[mM] M1 ([1]; M1=Ce, M2=Gd): 0.349 mM
[mM] Lu ([1]; M1=Ce, M2=Lu): 5.174 mM
[mM] M1 ([1]; M1=Ce, M2=Lu): 5.195 mM
[mM] Gd ([1]; M1=Dy, M2=Gd): 0.196 mM
[mM] M1 ([1]; M1=Dy, M2=Gd): 0.344 mM
[mM] Lu ([1]; M1=Dy, M2=Lu): 5.252 mM
[mM] M1 ([1]; M1=Dy, M2=Lu): 5.268 mM
[mM] Gd ([1]; M1=Er, M2=Gd): 5.127 mM
[mM] M1 ([1]; M1=Er, M2=Gd): 5.697 mM
[mM] Lu ([1]; M1=Er, M2=Lu): 5.298 mM
[mM] M1 ([1]; M1=Er, M2=Lu): 5.558 mM
[mM] Gd ([1]; M1=Eu, M2=Gd): 0.141 mM
[mM] M1 ([1]; M1=Eu, M2=Gd): 0.157 mM
[mM] Lu ([1]; M1=Eu, M2=Lu): 6.000 mM
[mM] M1 ([1]; M1=Eu, M2=Lu): 5.459 mM
[mM] Gd ([1]; M1=Gd, M2=Gd): 0.208 mM
[mM] M1 ([1]; M1=Gd, M2=Gd): 0.208 mM
[mM] Lu ([1]; M1=Gd, M2=Lu): 3.875 mM
[mM] M1 ([1]; M1=Gd, M2=Lu): 0.325 mM
[mM] Gd ([1]; M1=Ho, M2=Gd): 0.219 mM
[mM] M1 ([1]; M1=Ho, M2=Gd): 0.522 mM
[mM] Lu ([1]; M1=Ho, M2=Lu): 5.643 mM
[mM] M1 ([1]; M1=Ho, M2=Lu): 5.424 mM
[mM] Gd ([1]; M1=La, M2=Gd): 0.134 mM
[mM] M1 ([1]; M1=La, M2=Gd): 0.535 mM
[mM] Lu ([1]; M1=La, M2=Lu): 5.188 mM
[mM] M1 ([1]; M1=La, M2=Lu): 4.968 mM
[mM] Gd ([1]; M1=Lu, M2=Gd): 0.291 mM
[mM] M1 ([1]; M1=Lu, M2=Gd): 4.93 mM
[mM] Lu ([1]; M1=Lu, M2=Lu): 5.403 mM
[mM] M1 ([1]; M1=Lu, M2=Lu): 5.403 mM
[mM] Gd ([1]; M1=Nd, M2=Gd): 0.169 mM
[mM] M1 ([1]; M1=Nd, M2=Gd): 0.249 mM
[mM] Lu ([1]; M1=Nd, M2=Lu): 4.301 mM
[mM] M1 ([1]; M1=Nd, M2=Lu): 0.456 mM
[mM] Gd ([1]; M1=Pr, M2=Gd): 0.161 mM
[mM] M1 ([1]; M1=Pr, M2=Gd): 0.268 mM
[mM] Lu ([1]; M1=Pr, M2=Lu): 5.165 mM
[mM] M1 ([1]; M1=Pr, M2=Lu): 5.067 mM
[mM] Gd ([1]; M1=Sc, M2=Gd): 0.295 mM
[mM] M1 ([1]; M1=Sc, M2=Gd): 5.882 mM
[mM] Lu ([1]; M1=Sc, M2=Lu): 4.903 mM
[mM] M1 ([1]; M1=Sc, M2=Lu): 5.49 mM
[mM] Gd ([1]; M1=Sm, M2=Gd): 0.165 mM
[mM] M1 ([1]; M1=Sm, M2=Gd): 0.179 mM
[mM] Lu ([1]; M1=Sm, M2=Lu): 4.229 mM
[mM] M1 ([1]; M1=Sm, M2=Lu): 0.305 mM
[mM] Gd ([1]; M1=Tb, M2=Gd): 0.162 mM
[mM] M1 ([1]; M1=Tb, M2=Gd): 0.235 mM
[mM] Lu ([1]; M1=Tb, M2=Lu): 5.094 mM
[mM] M1 ([1]; M1=Tb, M2=Lu): 5.272 mM
[mM] Gd ([1]; M1=Tm, M2=Gd): 0.239 mM
[mM] M1 ([1]; M1=Tm, M2=Gd): 2.653 mM
[mM] Lu ([1]; M1=Tm, M2=Lu): 5.423 mM
[mM] M1 ([1]; M1=Tm, M2=Lu): 5.453 mM
[mM] Gd ([1]; M1=Y, M2=Gd): 0.183 mM
[mM] M1 ([1]; M1=Y, M2=Gd): 0.471 mM
[mM] Lu ([1]; M1=Y, M2=Lu): 5.188 mM
[mM] M1 ([1]; M1=Y, M2=Lu): 5.24 mM
[mM] Gd ([1]; M1=Yb, M2=Gd): 0.279 mM
[mM] M1 ([1]; M1=Yb, M2=Gd): 4.218 mM
[mM] Lu ([1]; M1=Yb, M2=Lu): 5.148 mM
[mM] M1 ([1]; M1=Yb, M2=Lu): 5.226 mM
average of the separation factor values Er/Ho ([2]; all Er/Ho mixtures): 2.73
Separation factor Er/Ho ([2]; group A, 1st precipitation): 2.30 and 2.59 and 2.55
Supernatant concentration [mM] Ho ([2]; group A, 1st precipitation): 0.44 mM and 0.40 mM and 0.46 mM
Precipitate concentration [mM] Ho ([2]; group A, 1st precipitation): 4.72 mM and 4.31 mM and 4.29 mM
Precipitate concentration [mM] Ho [2, 3]: 4.44 mM
Supernatant concentration [mM] Ho [2, 3]: 0.43 mM
Separation factor Er/Ho ([2]; group B, 2nd precipitation): 3.10 and 2.68 and 3.02
Supernatant concentration [mM] Ho ([2]; group B, 2nd precipitation): 0.58 mM and 0.51 mM and 0.44 mM
Precipitate concentration [mM] Ho ([2]; group B, 2nd precipitation): 4.07 mM and 4.24 mM and 4.20 mM
Precipitate concentration [mM] Ho ([2]; group B, 2nd precipitation, mean): 4.17 mM
Separation factor Er/Ho ([2]; group C, 3rd precipitation): 2.97 and 2.30 and 3.06
Precipitate concentration [mM] Ho ([2]; group C, 3rd precipitation): 3.23 mM and 2.65 mM
Precipitate concentration [mM] Ho ([2]; group C, 3rd precipitation, mean): 3.04 mM

Source: patent US20230356105A1, “TETRAAZADODECANE BASED CHELATING AGENTS FOR SEPARATION OF RARE EARTH ELEMENTS AND METHOD THEREFOR” (Ustav Organicke Chemie a Biochemie AV CR V.V.I., priority 2020, published 2023)
